# Experimental data from article PMC11434980, “Deciphering Chemical Rules for Drug Penetration into Strongyloides” (Pharmaceutics, 2024).
# Values joined by “and” are separate entries in the source; they are usually repeats but may differ in a detail not shown here. Equal values may be shown once. Read-outs that look alike come from different tables or passages of the source.
# How the values were obtained:
# [1] = test system: parasitic females of S. venezuelensis; design: method as in PMID 35914566; conditions: never achieving complete absence of movement at these concentrations; read-out: IC50 against adult females (literature); cited from earlier work
# S. venezuelensis L3s [2] = test: microbe, parasite or virus in culture; conditions: L3s
# Method: (§1) Baerman-obtained S. venezuelensis L3s were rinsed twice with distilled water and counted, and 100 to 150 larvae were placed per well in 96-well flat-bottom culture plates. Larvae were incubated at 28 °C for 30 min to allow adaptation and treated with compounds in the range of 0.5–40 µM for 72 h at 28 °C in a humid atmosphere. Mortality was assessed as the lack of any movement detected during 1 min of observation under an inverted microscope (40×), at 24, 48, and 72 h after treatment. The ability to stain the larvae was pointed out when observed; at 72 h, larvae were collected and washed two times with distilled water and placed in a new well to remove the background color and photographed. Pictures were also taken at 24 and 48 h without cleaning the larvae so as not to interfere with the 72 h readout of the experiment. […] All experiments were conducted in triplicate and at least three different times. The antiparasitic activity of the compounds was expressed as the concentration that inhibited the motility of half of the larvae (immobilization concentration 50, IC50).
# A total of 15 dyes were tested against S. venezuelensis L3s at a 20 µM concentration. The activity was determined by the number of larvae lacking motility relative to the total number in the well after 1 min of light excitation at 24, 48, and 72 h after treatment.
# [3] = test system: HeLa (human cervical cancer) cell line; test: Cytotoxicity, MTT method; format: cell-based
# Method: (§2) A cytotoxicity test was performed using the HeLa (human cervical cancer) cell line according to the MTT method. Cells were from the ATCC (Manassas, VA, USA). They were cultured at 37 °C in sub-confluent conditions under a 95% humidified atmosphere and 5% CO2 in Dulbecco’s Modified Eagle Medium (DMEM) (Gibco, Whaltman, MA, USA) supplemented with 10% heat-inactivated FBS, 2 mM L-glutamine, 100 U/mL penicillin, and 100 µg/mL streptomycin. […] The antiproliferative activity was measured in triplicate after 72 h using the MTT (3-(4,5-dimethylthiazol-2-yl)-2,5-diphenyltetrazolium bromide) Cell Proliferation Kit (Roche, Boston, MA, USA), following the manufacturer’s specifications. […] The selectivity index (SI = HeLa IC50/L3 IC50) for each compound was calculated to compare the antiparasitic activity with its respective human cell cytotoxicity.
# [4] = test system: parasitic females of S. venezuelensis; test: In vitro activity against adult females (movement categories); format: cell-based, Strongyloides venezuelensis; conditions: 10 µM, 50–70 worms per well
# Method: Seven to nine days after infection, the mice or rats were euthanized and the small intestine was removed, sliced longitudinally, minced, and placed in a sedimentation cup wrapped in 8 layers of gauze in phosphate-buffered solution (PBS) for two hours at 37 °C. Parasitic females were collected from the sediment and washed twice with saline solution (NaCl 0.15 mol/L) and twice with Roswell Park Memorial Institute 1640 (RPMI 1640) (Gibco, Whaltman, MA, USA) supplemented with 10% heat-inactivated FBS, 100 µg/mL streptomycin, and 100 U/mL penicillin (Gibco, Whaltman, MA, USA) to avoid contamination during the in vitro assays. After collection, females were placed in 96-well plates with supplemented RPMI medium and kept at 37 °C. We tested three different female population densities to explore the effects on the measured activity: 1–3 females, 10–15 females, and 50–70 females per well. At 24 h after plating, the compounds were applied at 10 µM and the anti-parasitic activity was evaluated at 1, 24, 48, and 72 h after treatment based on movement for 30 s observation periods under the microscope (40×). […] All experiments were conducted in duplicate and at least three different times. […]
# [5] = test system: S. venezuelensis experimental infections of mice; test: In vivo activity in S. venezuelensis experimental infection of mice (eggs in feces, parthenogenetic females); design: species or system Strongyloides venezuelensis; conditions: for reduction in the number of parthenogenetic females: day 8 p.i., compared to infection group; for parthenogenetic females recovered per mouse at day 8 p.i.: ivermectin 0.2 mg/kg oral day 5 p.i., dyes 20 mg/kg/day day 0 to 5 p.i.
# Method: All animals were infected by subcutaneous injection with 3000 […] of S. venezuelensis resuspended in PBS. […] The eggs per gram was reported. The recovery of parasite females was performed as described above. The mean was determined for the eggs per gram (EPG) of feces and parthenogenetic female counts. The color of the feces and urine in the beds was recorded.
# Cytotoxicity, MTT method = format: cell-based, human; conditions: human; HeLa cells, 72 h, MTT; read-out: HeLa IC50 (antiproliferative activity / cytotoxicity)
# Method: as §2
# S. venezuelensis L3s [6] = test: Staining (uptake) of L3 larvae by the dyes; format: cell-based, Strongyloides venezuelensis; conditions: for lowest staining concentration (Conc): 72 h
# Method: as §1
# [7] = test system: parasitic females of S. venezuelensis; test: Staining of adult females by the dyes; format: cell-based, Strongyloides venezuelensis; conditions: 10 µM
# [8] = test system: parasitic females of S. venezuelensis; test: In vitro activity against adult females (movement categories); format: cell-based, Strongyloides venezuelensis; conditions: 72 h
# [9] = read-out: IC50 72 h (immobilization concentration 50 of cultured L3s), 72 h
Compound,Screening 20 µM 72 h (S. venezuelensis L3s [2]; 72 h),IC50 (S. venezuelensis L3s [2]; [9]) [µM],effect on adult females [4],Activity against parasitic females 1 h [4],Activity against parasitic females 24 h [4],Activity against parasitic females 48 h [4],Activity against parasitic females 72 h [4],reduction in the number of parthenogenetic females [5] [%],parthenogenetic females recovered per mouse at day 8 p.i. [5],"IC50 at 72 h (Cytotoxicity, MTT method) [µM]",Staining 72 h (L3 staining ability) (S. venezuelensis L3s [6]),lowest staining concentration (Conc) (S. venezuelensis L3s [6]) [µM],Staining of parasitic females [7],staining of adult females [7],further results
Ivermectin,Active,1.5 ± 0.3,noticeable spasmodic movement,Affected,Affected,Slightly affected,Slightly affected,91.5,29 ± 12.3 and 29,–,–,–,–,–,"IC50 [1]: > 229 µM; IC50 (S. venezuelensis L3s [2]; read-out: IC50 24 h (immobilization concentration 50 of cultured L3s), 24 h): 2.1 ± 0.1 µM; IC50 (S. venezuelensis L3s [2]; read-out: IC50 48 h (immobilization concentration 50 of cultured L3s), 48 h): 1.6 ± 0.3 µM; IC50 ([3]; HeLa cells, 72 h, MTT, read-out: HeLa IC50 (antiproliferative activity / cytotoxicity)): 5.9 µM; Eggs in feces at peak, day 5 p.i. ([5]; ivermectin (Noromectin) single oral dose 0.2 mg/kg on day 5 p.i.): 20,534 ± 15,961 eggs per gram"
CN(C)c1ccc(C(=C2C=CC(=[N+](C)C)C=C2)c2ccc(N(C)C)cc2)cc1 [Crystal Violet],Active,–,–,Healthy,Healthy,Slightly affected,Slightly affected,46.5,182,1,Yes,2,No,did not stain,selectivity index (SI = HeLa IC50/L3 IC50) ([3]; HeLa IC50 / L3 IC50): 0.31
CN(C)c1ccc2nc3ccc(=[N+](C)C)cc-3sc2c1 [Methylene Blue],–,4.3 ± 0.3,significantly affected,Healthy,Affected,Death,Death,–,–,1.1,Yes,1,Yes,clearly stained,Staining (Time) ([7]; time at which staining of females was seen): 24 h; IC50 [8]: 6.02 µM
